Measurements as given in ChEMBL document CHEMBL3045024, “Synthesis, structure and insecticidal activities of some novel amides containing N-pyridylpyrazole moeities” (2012).
The source made the active and inactive calls. No cut-off for these calls is given here.

Assays:
Mythimna separata [1] = assay: Insecticidal activity against fourth-instar larvae of Mythimna separata (Oriental armyworm) reared on compound pre-treated corn leaves assessed as mortality at 100 ug/mL measured 72 hr post compound treatment by leaf-dipping assay; type: functional
Mythimna separata [2] = assay: Insecticidal activity against fourth-instar larvae of Mythimna separata (Oriental armyworm) reared on compound pre-treated corn leaves assessed as mortality at 200 ug/mL measured 72 hr post compound treatment by leaf-dipping assay; type: functional
Mythimna separata [3] = assay: Insecticidal activity against fourth-instar larvae of Mythimna separata (Oriental armyworm) reared on compound pre-treated corn leaves assessed as mortality at 50 ug/mL measured 72 hr post compound treatment by leaf-dipping assay; type: functional
Culex pipiens pallens = assay: Insecticidal activity against Culex pipiens pallens (mosquito) fourth-instar larvae assessed as mortality at 2 ug/mL measured 72 hr post compound treatment; type: functional
Spodoptera exigua [4] = assay: Insecticidal activity against Spodoptera exigua third-instar larvae infested on compound pre-treated cabbage leaves assessed as mortality at 50 ug/mL measured 3 days post compound treatment by leaf-dipping assay; type: functional
Spodoptera exigua [5] = assay: Insecticidal activity against Spodoptera exigua third-instar larvae infested on compound pre-treated cabbage leaves assessed as mortality at 25 ug/mL measured 3 days post compound treatment by leaf-dipping assay; type: functional
Plutella xylostella [6] = assay: Insecticidal activity against Plutella xylostella (diamondback moth) second-instar larvae infested on compound pre-treated cabbage leaves assessed as mortality at 25 ug/mL measured 3 days post compound treatment by leaf-dipping assay; type: functional
Spodoptera exigua [7] = assay: Insecticidal activity against Spodoptera exigua third-instar larvae infested on compound pre-treated cabbage leaves assessed as mortality at 200 ug/mL measured 3 days post compound treatment by leaf-dipping assay; type: functional
Plutella xylostella [8] = assay: Insecticidal activity against Plutella xylostella (diamondback moth) second-instar larvae infested on compound pre-treated cabbage leaves assessed as mortality at 50 ug/mL measured 3 days post compound treatment by leaf-dipping assay; type: functional
Plutella xylostella [9] = assay: Insecticidal activity against Plutella xylostella (diamondback moth) second-instar larvae infested on compound pre-treated cabbage leaves assessed as mortality at 100 ug/mL measured 3 days post compound treatment by leaf-dipping assay; type: functional
Spodoptera exigua [10] = assay: Insecticidal activity against Spodoptera exigua third-instar larvae infested on compound pre-treated cabbage leaves assessed as mortality at 100 ug/mL measured 3 days post compound treatment by leaf-dipping assay; type: functional
Mythimna separata [11] = assay: Insecticidal activity against fourth-instar larvae of Mythimna separata (Oriental armyworm) reared on compound pre-treated corn leaves assessed as mortality at 10 ug/mL measured 72 hr post compound treatment by leaf-dipping assay; type: functional
Mythimna separata [12] = assay: Insecticidal activity against fourth-instar larvae of Mythimna separata (Oriental armyworm) reared on compound pre-treated corn leaves assessed as mortality at 25 ug/mL measured 72 hr post compound treatment by leaf-dipping assay; type: functional
Plutella xylostella [13] = assay: Insecticidal activity against Plutella xylostella (diamondback moth) second-instar larvae infested on compound pre-treated cabbage leaves assessed as mortality at 200 ug/mL measured 3 days post compound treatment by leaf-dipping assay; type: functional
Mythimna separata [14] = assay: Insecticidal activity against fourth-instar larvae of Mythimna separata (Oriental armyworm) reared on compound pre-treated corn leaves assessed as mortality at 5 ug/mL measured 72 hr post compound treatment by leaf-dipping assay; type: functional
Mythimna separata [15] = assay: Insecticidal activity against fourth-instar larvae of Mythimna separata (Oriental armyworm) reared on compound pre-treated corn leaves assessed as induction of abnormal symptoms at 10 ug/mL measured 36 hr post compound treatment by leaf-dipping assay; type: functional, organism-based

Compound | mortality at 100 µg/mL (Mythimna separata [1]) | mortality at 200 µg/mL (Mythimna separata [2]) | mortality at 50 µg/mL (Mythimna separata [3]) | mortality at 2 µg/mL (Culex pipiens pallens) | mortality at 50 µg/mL (Spodoptera exigua [4]) | mortality at 25 µg/mL (Spodoptera exigua [5]) | mortality at 25 µg/mL (Plutella xylostella [6]) | mortality at 200 µg/mL (Spodoptera exigua [7]) | mortality at 50 µg/mL (Plutella xylostella [8]) | mortality at 100 µg/mL (Plutella xylostella [9]) | mortality at 100 µg/mL (Spodoptera exigua [10]) | mortality at 10 µg/mL (Mythimna separata [11]) | mortality at 25 µg/mL (Mythimna separata [12]) | mortality at 200 µg/mL (Plutella xylostella [13]) | mortality at 5 µg/mL (Mythimna separata [14]) | Activity (Mythimna separata [15])
Cc1cccc([N+](=O)[O-])c1NC(=O)c1cc(Br)nn1-c1ncccc1Cl | 80% | 100% | 20% | 50% | – | – | – | – | – | – | – | – | – | – | – | –
Cc1ccc(NC(=O)c2cc(Br)nn2-c2ncccc2Cl)c(C)c1 | 70% | 100% | 0% | – | – | – | – | – | – | – | – | – | – | – | – | –
O=C(Nc1ccc(F)c(Cl)c1)c1cc(Br)nn1-c1ncccc1Cl | 0% | 100% | – | – | – | – | – | – | – | – | – | – | – | – | – | –
Cc1cc(Cl)cc(C)c1NC(=O)c1cc(Br)nn1-c1ncccc1Cl | 100% | 100% | 100% | 30% | 98% | 94% | 94% | 100% | 97% | 100% | 100% | 20% | 80% | 100% | – | –
CCOc1ccc(NC(=O)c2cc(Br)nn2-c2ncccc2Cl)cc1 | 0% | 100% | – | 30% | – | – | – | – | – | – | – | – | – | – | – | –
O=C(Nc1ccc(F)cc1)c1cc(Br)nn1-c1ncccc1Cl | 100% | 100% | 100% | 0% | 92% | 96% | 88% | 95% | 99% | 98% | 100% | – | 50% | 100% | – | –
Cc1cc([N+](=O)[O-])cc(Cl)c1NC(=O)c1cc(Br)nn1-c1ncccc1Cl | 100% | 100% | 100% | – | – | – | – | – | – | – | – | 30% | 70% | – | – | –
O=C(Nc1cc(Cl)ccc1Cl)c1cc(Br)nn1-c1ncccc1Cl | – | 0% | – | 10% | – | – | – | – | – | – | – | – | – | – | – | –
Cc1cc(Br)cc(C)c1NC(=O)c1cc(Br)nn1-c1ncccc1Cl | 100% | 100% | 100% | 30% | 89% | 93% | – | 100% | 0% | 72% | 100% | 30% | 100% | 89% | – | –
O=C(Nc1cccc(Cl)c1)c1cc(Br)nn1-c1ncccc1Cl | – | 0% | – | – | – | – | – | – | – | – | – | – | – | – | – | –
O=C(Nc1ccc([N+](=O)[O-])cc1Br)c1cc(Br)nn1-c1ncccc1Cl | 100% | 100% | 30% | 40% | 100% | 100% | 90% | 100% | 96% | 98% | 100% | – | – | 100% | – | –
Cc1cc(Cl)cc([N+](=O)[O-])c1NC(=O)c1cc(Br)nn1-c1ncccc1Cl | 100% | 100% | 100% | 20% | 95% | 92% | 76% | 98% | 84% | 89% | 100% | – | 60% | 95% | – | –
Cc1cccc(C)c1NC(=O)c1cc(Br)nn1-c1ncccc1Cl | 80% | 100% | 40% | – | – | – | – | – | – | – | – | – | – | – | – | –
O=C(Nc1ccc([N+](=O)[O-])cc1)c1cc(Br)nn1-c1ncccc1Cl | 90% | 100% | 20% | 20% | – | – | – | – | – | – | – | – | – | – | – | –
O=C(Nc1ccc(Cl)cc1)c1cc(Br)nn1-c1ncccc1Cl | 100% | 100% | 100% | 10% | 100% | 100% | 97% | 100% | 100% | 98% | 100% | 0% | 70% | 100% | – | –
CNC(=O)c1cc(Cl)cc(C)c1NC(=O)c1cc(Br)nn1-c1ncccc1Cl [CHLORANTRANILIPROLE] | – | – | – | 100% | 100% | 100% | 94% | – | 100% | – | – | – | – | – | 100% | Active
Cc1cc([N+](=O)[O-])ccc1NC(=O)c1cc(Br)nn1-c1ncccc1Cl | 100% | 100% | 100% | 40% | – | – | – | – | – | – | – | 50% | 80% | – | – | –
O=C(Nc1ccc(Cl)cc1[N+](=O)[O-])c1cc(Br)nn1-c1ncccc1Cl | – | 10% | – | 40% | – | – | – | – | – | – | – | – | – | – | – | –
O=C(Nc1ccc([N+](=O)[O-])cc1Cl)c1cc(Br)nn1-c1ncccc1Cl | 100% | 100% | 100% | 80% | 78% | 65% | – | 91% | 0% | 72% | 86% | 80% | 100% | 78% | 0% | Active
O=C(Nc1ccc(I)cc1)c1cc(Br)nn1-c1ncccc1Cl | 100% | 100% | 50% | 100% | – | – | – | – | – | – | – | – | – | – | – | –
